Drawing on patent US8785460B2, “Tricyclic compounds and use thereof” (Takeda Pharmaceutical Company Limited, priority 2008, dated 2014), this text covers melting point and IC50 for 26 molecules.

Data set [1] addresses T1, human CRF1 receptor (Homo sapiens, UniProt P34998).
T1 construct: expressed in transfected cells; host or cells: CHO cells (membrane fraction)
T1 sequence (P34998 24-415): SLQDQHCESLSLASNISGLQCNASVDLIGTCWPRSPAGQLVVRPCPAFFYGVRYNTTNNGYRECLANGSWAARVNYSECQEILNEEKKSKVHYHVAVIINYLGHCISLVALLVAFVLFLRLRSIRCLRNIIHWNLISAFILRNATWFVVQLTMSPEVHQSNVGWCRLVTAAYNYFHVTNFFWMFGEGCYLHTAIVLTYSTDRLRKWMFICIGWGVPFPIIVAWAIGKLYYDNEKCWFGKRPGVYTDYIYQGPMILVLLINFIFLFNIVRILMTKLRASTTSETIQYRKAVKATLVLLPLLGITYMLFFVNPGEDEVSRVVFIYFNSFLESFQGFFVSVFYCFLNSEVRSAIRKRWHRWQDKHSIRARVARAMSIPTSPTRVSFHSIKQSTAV
The data set can be described thus: Measurement of CRF Binding Inhibitory Rate (receptor binding experiment with 125I-CRF). The note with it: human CRF1 receptor expressing CHO cellular membrane fraction, 50 pM 125I-CRF, room temperature 1.5 hr, 0.05 nM to 10 μM of compound; read-out: IC50 values (CRF binding inhibition).

pIC50: −log10 of the molar value. A value given as a limit tells only on which side of the number the result lay.

For orientation: melting point means the temperature, or range, at which the solid turns liquid. What is called pIC50 is the IC50 on a negative log10 scale, so that one unit is a factor of ten. `CCC(OC(C)=O)c1ccc(Cl)c2nc3n(c12)CCCN3c1ccc(Cl)cc1Cl` (racemic) [Example 238, 1-[9-Chloro-1-(2,4-dichlorophenyl)-1,2,3,4-tetrahydropyrimido[1,2-a]benzimidazol-6-yl]propyl acetate] returned a melting point of 174 to 176 °C. In addition, in data set [1], the pIC50 was > 6.00.
The matching figures for `CCC(OC(C)=O)c1ccc(Cl)c2nc3n(c12)CCCN3c1ccc(OC)nc1C` (racemic) [Example 265, 1-[9-Chloro-1-(6-methoxy-2-methylpyridin-3-yl)-1,2,3,4-tetrahydropyrimido[1,2-a]benzimidazol-6-yl]propyl acetate]: 157 to 159 °C and > 6.00.
For `CCC(CC)c1ccc(Cl)c2nc3n(c12)CCN3c1ccc(Cl)cc1Cl` [Example 3, 8-Chloro-1-(2,4-dichlorophenyl)-5-(1-ethylpropyl)-2,3-dihydro-1H-imidazo[1,2-a]benzimidazole], the melting point fell in the range of 171 to 173 °C. Besides, the pIC50 in data set [1] is > 6.00.
The matching figures for `CCC(CC)c1ccc(Cl)c2nc3n(c12)CC(=O)N3c1ccc(Cl)cc1Cl` [Example 4, 8-Chloro-1-(2,4-dichlorophenyl)-5-(1-ethylpropyl)-1H-imidazo[1,2-a]benzimidazol-2(3H)-one]: 200 to 202 °C and > 6.00.
The matching figures for `CCC(CC)c1ccc(Cl)c2nc3n(c12)CCN3c1ccc(Cl)cc1Br` [Example 5, 1-(2-Bromo-4-chlorophenyl)-8-chloro-5-(1-ethylpropyl)-2,3-dihydro-1H-imidazo[1,2-a]benzimidazole]: 169 to 171 °C and > 6.00.
The matching figures for `CCC(CC)c1ccc(Cl)c2nc3n(c12)C(Cl)(Cl)C(=O)N3c1c(C)cc(Cl)cc1OC` [Example 11, 3,3,8-Trichloro-1-(4-chloro-2-methoxy-6-methylphenyl)-5-(1-ethylpropyl)-1H-imidazo[1,2-a]benzimidazol-2(3H)-one]: 190 to 192 °C and > 6.00.
The molecule `CCC(CC)c1ccc(Cl)c2nc3n(c12)CCN3c1ccc(Br)cc1Cl` [Example 12, 1-(4-Bromo-2-chlorophenyl)-8-chloro-5-(1-ethylpropyl)-2,3-dihydro-1H-imidazo[1,2-a]benzimidazole] came in with a melting point of 165 to 168 °C. In data set [1], the pIC50 was > 6.00.
The matching figures for `CCC(CC)c1ccc(Cl)c2nc3n(c12)CCN3c1ccc(C(N)=O)cc1Cl` [Example 15, 3-Chloro-4-[8-chloro-5-(1-ethylpropyl)-2,3-dihydro-1H-imidazo[1,2-a]benzimidazol-1-yl]benzamide]: 225 to 229 °C and > 6.00.
The matching figures for `CCC(CC)c1ccc(Cl)c2nc3n(c12)CCCCN3c1ccc(Cl)cc1Cl` [Example 21, 10-Chloro-1-(2,4-dichlorophenyl)-7-(1-ethylpropyl)-2,3,4,5-tetrahydro-1H-[1,3]diazepino[1,2-a]benzimidazole]: 160 to 162 °C and > 6.00.
The matching figures for `CCC(CC)c1ccc(Cl)c2nc3n(c12)CCCC(=O)N3c1ccc(Cl)cc1Cl` [Example 22, 10-Chloro-1-(2,4-dichlorophenyl)-7-(1-ethylpropyl)-4,5-dihydro-1H-[1,3]diazepino[1,2-a]benzimidazol-2(3H)-one]: 135 to 137 °C and > 6.00.
`CCC(CC)c1ccc(Cl)c2nc3n(c12)CCCCN3c1ccc(Cl)cc1` [Example 23, 10-Chloro-1-(4-chlorophenyl)-7-(1-ethylpropyl)-2,3,4,5-tetrahydro-1H-[1,3]diazepino[1,2-a]benzimidazole] came in with a melting point of 133 to 135 °C. In addition, in data set [1], the pIC50 is > 6.00.
The molecule `CCC(CC)c1ccc(Cl)c2nc3n(c12)CCCCN3c1cnc(N(C)C)cc1C` [Example 25, 5-[10-Chloro-7-(1-ethylpropyl)-2,3,4,5-tetrahydro-1H-[1,3]diazepino[1,2-a]benzimidazol-1-yl]-N,N,4-trimethylpyridin-2-amine] yielded a melting point of 156 to 157 °C. The negative logarithm of the IC50 (pIC50) in data set [1] was > 6.00.
The matching figures for `CCC(CC)c1ccc(Cl)c2nc3n(c12)CCCCN3c1c[n+]([O-])c(N(C)C)cc1C` [Example 26, 5-[10-Chloro-7-(1-ethylpropyl)-2,3,4,5-tetrahydro-1H-[1,3]diazepino[1,2-a]benzimidazol-1-yl]-N,N,4-trimethylpyridin-2-amine 1-oxide]: 142 to 143 °C and > 6.00.
The matching figures for `CCC(CC)c1ccc(Cl)c2nc3n(c12)CCCCN3c1ccc(OC)nc1OC` [Example 28, 10-Chloro-1-(2,6-dimethoxypyridin-3-yl)-7-(1-ethylpropyl)-2,3,4,5-tetrahydro-1H-[1,3]diazepino[1,2-a]benzimidazole]: 85 to 88 °C and > 6.00.
The matching figures for `CCC(CC)c1ccc(Cl)c2nc3n(c12)CCCCN3c1cnc(N2CCCC2)cc1C` [Example 29, 10-Chloro-7-(1-ethylpropyl)-1-(4-methyl-6-pyrrolidin-1-ylpyridin-3-yl)-2,3,4,5-tetrahydro-1H-[1,3]diazepino[1,2-a]benzimidazole]: 160 to 161 °C and > 6.00.
Turning to `CCC(CC)c1ccc(Cl)c2nc3n(c12)CCCCN3c1cnc(OC)cc1C` [Example 30, 10-Chloro-7-(1-ethylpropyl)-1-(6-methoxy-4-methylpyridin-3-yl)-2,3,4,5-tetrahydro-1H-[1,3]diazepino[1,2-a]benzimidazole], the melting point is 112 to 114 °C. Moreover, the pIC50 in data set [1] was > 6.00.
Take `CCC(CC)c1ccc(Cl)c2nc3n(c12)CCCCN3c1ccc(C)cc1Br` [Example 31, 1-(2-Bromo-4-methylphenyl)-10-chloro-7-(1-ethylpropyl)-2,3,4,5-tetrahydro-1H-[1,3]diazepino[1,2-a]benzimidazole]: the melting point is 152 to 155 °C. In addition, the pIC50 in data set [1] is > 6.00.
The matching figures for `CCC(CC)c1ccc(Cl)c2nc3n(c12)CCCCN3c1ccc(C)cc1C#N` [Example 36, 2-[10-Chloro-7-(1-ethylpropyl)-2,3,4,5-tetrahydro-1H-[1,3]diazepino[1,2-a]benzimidazol-1-yl]-5-methylbenzonitrile]: 176 to 180 °C and > 6.00.
The matching figures for `CCC(CC)c1cccc2nc3n(c12)CCCCN3c1ccc(OC)cc1OC` [Example 37, 1-(2,4-Dimethoxyphenyl)-7-(1-ethylpropyl)-2,3,4,5-tetrahydro-1H-[1,3]diazepino[1,2-a]benzimidazole]: 145 to 148 °C and > 6.00.
The matching figures for `CCC(CC)c1ccc(Cl)c2nc3n(c12)CCCCN3c1ccc(C(F)(F)F)cc1Br` [Example 38, 1-[2-Bromo-4-(trifluoromethyl)phenyl]-10-chloro-7-(1-ethylpropyl)-2,3,4,5-tetrahydro-1H-[1,3]diazepino[1,2-a]benzimidazole]: 158 to 160 °C and > 6.00.
`CCC(CC)c1ccc(Cl)c2nc3n(c12)CCCCN3c1ccc(OC(F)(F)F)cc1Br` [Example 39, 1-[2-Bromo-4-(trifluoromethoxy)phenyl]-10-chloro-7-(1-ethylpropyl)-2,3,4,5-tetrahydro-1H-[1,3]diazepino[1,2-a]benzimidazole] came in with a melting point of 114 to 117 °C. Besides, in data set [1], the pIC50 is > 6.00.
The matching figures for `CCC(CC)c1ccc(Cl)c2nc3n(c12)CCCCN3c1ccc(SC)cc1C` [Example 44, 10-Chloro-7-(1-ethylpropyl)-1-[2-methyl-4-(methylthio)phenyl]-2,3,4,5-tetrahydro-1H-[1,3]diazepino[1,2-a]benzimidazole]: 113 to 115 °C and > 6.00.
For the molecule `CCC(CC)c1ccc(Cl)c2nc3n(c12)CCCCN3c1ccc([S+](C)[O-])cc1C` (stereo not shown) [Example 45, 10-Chloro-7-(1-ethylpropyl)-1-[2-methyl-4-(methylsulfinyl)phenyl]-2,3,4,5-tetrahydro-1H-[1,3]diazepino[1,2-a]benzimidazole], the melting point lay in the range of 189 to 190 °C. Besides, the negative logarithm of the IC50 (pIC50) in data set [1] was > 6.00.
The matching figures for `CCC(CC)c1ccc(Cl)c2nc3n(c12)CCCCN3c1ccc(S(C)(=O)=O)cc1C` [Example 46, 10-Chloro-7-(1-ethylpropyl)-1-[2-methyl-4-(methylsulfonyl)phenyl]-2,3,4,5-tetrahydro-1H-[1,3]diazepino[1,2-a]benzimidazole]: 170 to 171 °C and > 6.00.
`CCC(CC)c1ccc(Cl)c2nc3n(c12)CCCCN3c1ccc(C(N)=O)cc1C` [Example 48, 4-[10-Chloro-7-(1-ethylpropyl)-2,3,4,5-tetrahydro-1H-[1,3]diazepino[1,2-a]benzimidazol-1-yl]-3-methylbenzamide] returned a melting point of 185 to 186 °C. Moreover, the negative logarithm of the IC50 (pIC50) in data set [1] is > 6.00.
The matching figures for `CCC(CC)c1ccc(Cl)c2nc3n(c12)CCCCN3c1ccc(C(=O)NC)cc1C` [Example 49, 4-[10-Chloro-7-(1-ethylpropyl)-2,3,4,5-tetrahydro-1H-[1,3]diazepino[1,2-a]benzimidazol-1-yl]-N,3-dimethylbenzamide]: 127 to 128 °C and > 6.00.
